Data taken from patent US20230301300A1, “HERBICIDAL COMPOSITIONS” (SYNGENTA CROP PROTECTION AG, priority 2020, published 2023).

Key:
Assay type in all cases: in vivo
[1] = test system: Amaranthus retoflexus (AMARE); assay: B1 Post-Emergence Efficacy - Test 1; details: 1000 g/ha, after 13 days, five point scale
Experimental: (§1) Seeds of a variety of test species are sown in standard soil in pots:— Solanum nigrum (SOLNI), Amaranthus retoflexus (AMARE), Setaria faberi (SETFA), Alopecurus myosuroides (ALOMY), Echinochloa crus-galli (ECHCG), Ipomoea hederacea (IPOHE), Lolium perenne (LOLPE). After 8 days cultivation (post-emergence) under controlled conditions in a glasshouse (at 24/16° C., day/night; 14 hours light; 65% humidity), the plants are sprayed with an aqueous spray solution derived from the formulation of the technical active ingredient in acetone/water (50:50) solution containing 0.5% Tween 20 (polyoxyethylene sorbitan monolaurate, CAS RN 9005-64-5). Compounds are applied at 1000 g/ha. The test plants are then grown in a glasshouse under controlled conditions in a glasshouse (at 24/16° C., day/night; 14 hours light; 65% humidity) and watered twice daily. After 13 days, the test is evaluated for the percentage damage caused to the plant. The biological activities are assessed on a five point scale (5=80-100%; 4=60-79%; 3=40-59%; 2=20-39%; 1=0-19%). A blank value in the table is indicative that the compound was not tested on that species.

[2] = test system: Echinochloa crus-galli (ECHCG); assay: B1 Post-Emergence Efficacy - Test 1; details: 1000 g/ha, after 13 days, five point scale
Experimental: as §1

[3] = test system: Ipomoea hederacea (IPOHE); assay: B1 Post-Emergence Efficacy - Test 1; details: 1000 g/ha, after 13 days, five point scale
Experimental: as §1

[4] = test system: Lolium perenne (LOLPE); assay: B1 Post-Emergence Efficacy - Test 1; details: 1000 g/ha, after 13 days, five point scale
Experimental: as §1

[5] = test system: Setaria faberi (SETFA); assay: B1 Post-Emergence Efficacy - Test 1; details: 1000 g/ha, after 13 days, five point scale
Experimental: as §1

[6] = test system: Solanum nigrum (SOLNI); assay: B1 Post-Emergence Efficacy - Test 1; details: 1000 g/ha, after 13 days, five point scale
Experimental: as §1

[7] = test system: Abutilon theophrasti (ABUTH); assay: B2 Post-Emergence Efficacy - Test 2; details: 15 days after application, 0-100 scale
Experimental: (§2) Seeds of a variety of test species (see Table B1) were sown in standard soil in pots. After cultivation for 12 days (post-emergence) under controlled conditions in a glasshouse (at 24/18° C. or 20/16° C., at day/night; 16 hours light; 65% humidity), the plants were sprayed with an aqueous spray solution derived from the formulation of the technical active ingredient dissolved in IF50 (see Table B2 for composition) and adjuvant (Genapol X080) was added to the spray solution at a rate of 0.2% v/v.
(§3) After application, the test plants were grown in a glasshouse under controlled conditions (as above) and watered twice daily. Herbicidal activity was evaluated 15 days after application on a 0-100 scale. The results, where 0=no damage to test plant and 100=total kill of test plant are shown below in Tables 8 to 11.

[8] = test system: Amaranthus retroflexus (AMARE); assay: B2 Post-Emergence Efficacy - Test 2; details: 15 days after application, 0-100 scale
Experimental: as §2, §3

[9] = test system: Avena fatua (AVEFA); assay: B2 Post-Emergence Efficacy - Test 2; details: 15 days after application, 0-100 scale
Experimental: as §2, §3

[10] = test system: Brachiaria plantaginea (BRAPL); assay: B2 Post-Emergence Efficacy - Test 2; details: 15 days after application, 0=no damage, 100=total kill
Experimental: as §2, §3

[11] = test system: Echinochloa crus galli (ECHCG); assay: B2 Post-Emergence Efficacy - Test 2; details: 15 days after application, 0=no damage, 100=total kill
Experimental: as §2, §3

[12] = test system: Glycine max (GLXMA); assay: B2 Post-Emergence Efficacy - Test 2; details: 15 days after application; for Herbicidal activity GLXMA: 0-100 scale; for Herbicidal activity on a 0-100 scale, GLXMA: 0=no damage, 100=total kill
Experimental: as §2, §3

[13] = test system: Hordeum vulgare (HORVW); assay: B2 Post-Emergence Efficacy - Test 2; details: 15 days after application, 0-100 scale
Experimental: as §2, §3

[14] = test system: Ipomoea hederacea (IPOHE); assay: B2 Post-Emergence Efficacy - Test 2; details: 15 days after application, 0-100 scale
Experimental: as §2, §3

[15] = test system: Orysa sativa (ORYSA); assay: B2 Post-Emergence Efficacy - Test 2; details: 15 days after application; for Herbicidal activity ORYSA: 0-100 scale; for Herbicidal activity on a 0-100 scale, ORYSA: 0=no damage, 100=total kill
Experimental: as §2, §3

[16] = test system: Setaria faberi (SETFA); assay: B2 Post-Emergence Efficacy - Test 2; details: 15 days after application, 0=no damage, 100=total kill
Experimental: as §2, §3

[17] = test system: Sinapis arvensis (SINAR); assay: B2 Post-Emergence Efficacy - Test 2; details: 15 days after application, 0-100 scale
Experimental: as §2, §3

Cc1nn(C)c(=O)c(-c2c(F)ccc(Cl)c2CCc2ccc(C(F)(F)F)nc2)c1O [Compound 1.042, 4-[3-chloro-6-fluoro-2-[2-[6-(trifluoromethyl)-3-pyridyl]ethyl]phenyl]-5-hydroxy-2,6-dimethyl-pyridazin-3-one]
40: Herbicidal activity HORVW ([13]; 125 g/Ha) | Herbicidal activity on a 0-100 scale, SETFA ([16]; 15 g/Ha)
60: Herbicidal activity AVEFA ([9]; 30 g/Ha) | Herbicidal activity GLXMA ([12]; 15 g/Ha) | Herbicidal activity on a 0-100 scale, GLXMA ([12]; 15 g/Ha)
20: Herbicidal activity HORVW ([13]; 30 g/Ha) | Herbicidal activity HORVW ([13]; 60 g/Ha) | Herbicidal activity ORYSA ([15]; 250 g/Ha) | Herbicidal activity on a 0-100 scale, ORYSA ([15]; 250 g/Ha)
80: Herbicidal activity ABUTH ([7]; 15 g/Ha) | Herbicidal activity AVEFA ([9]; 60 g/Ha) | Herbicidal activity AVEFA ([9]; 125 g/Ha) | Herbicidal activity on a 0-100 scale, BRAPL ([10]; 15 g/Ha) | Herbicidal activity on a 0-100 scale, BRAPL ([10]; 30 g/Ha) | Herbicidal activity on a 0-100 scale, ECHCG ([11]; 15 g/Ha) | Herbicidal activity GLXMA ([12]; 30 g/Ha) | Herbicidal activity on a 0-100 scale, GLXMA ([12]; 30 g/Ha) | Herbicidal activity HORVW ([13]; 250 g/Ha) | Herbicidal activity HORVW ([13]; 500 g/Ha) | Herbicidal activity on a 0-100 scale, SETFA ([16]; 30 g/Ha) | Herbicidal activity SINAR ([17]; 15 g/Ha)
90: Herbicidal activity ABUTH ([7]; 30 g/Ha) | Herbicidal activity AVEFA ([9]; 250 g/Ha) | Herbicidal activity AVEFA ([9]; 500 g/Ha) | Herbicidal activity on a 0-100 scale, BRAPL ([10]; 60 g/Ha) | Herbicidal activity on a 0-100 scale, BRAPL ([10]; 125 g/Ha) | Herbicidal activity on a 0-100 scale, BRAPL ([10]; 250 g/Ha) | Herbicidal activity on a 0-100 scale, BRAPL ([10]; 500 g/Ha) | Herbicidal activity on a 0-100 scale, ECHCG ([11]; 30 g/Ha) | Herbicidal activity on a 0-100 scale, ECHCG ([11]; 60 g/Ha) | Herbicidal activity on a 0-100 scale, ECHCG ([11]; 125 g/Ha) | Herbicidal activity GLXMA ([12]; 60 g/Ha) | Herbicidal activity on a 0-100 scale, GLXMA ([12]; 60 g/Ha) | Herbicidal activity GLXMA ([12]; 125 g/Ha) | Herbicidal activity on a 0-100 scale, GLXMA ([12]; 125 g/Ha) | Herbicidal activity on a 0-100 scale, SETFA ([16]; 60 g/Ha) | Herbicidal activity on a 0-100 scale, SETFA ([16]; 125 g/Ha) | Herbicidal activity on a 0-100 scale, SETFA ([16]; 250 g/Ha) | Herbicidal activity SINAR ([17]; 30 g/Ha) | Herbicidal activity SINAR ([17]; 60 g/Ha) | Herbicidal activity SINAR ([17]; 125 g/Ha) | Herbicidal activity SINAR ([17]; 250 g/Ha) | Herbicidal activity SINAR ([17]; 500 g/Ha)
50: Herbicidal activity ORYSA ([15]; 500 g/Ha) | Herbicidal activity on a 0-100 scale, ORYSA ([15]; 500 g/Ha)
5 (5=80-100%): percentage damage caused to the plant, AMARE [1] | percentage damage caused to the plant, ECHCG [2] | percentage damage caused to the plant, IPOHE [3] | percentage damage caused to the plant, LOLPE [4] | percentage damage caused to the plant, SETFA [5] | percentage damage caused to the plant, SOLNI [6]
10: Herbicidal activity HORVW ([13]; 15 g/Ha)
30: Herbicidal activity AVEFA ([9]; 15 g/Ha)
100: Herbicidal activity ABUTH ([7]; 60 g/Ha) | Herbicidal activity ABUTH ([7]; 125 g/Ha) | Herbicidal activity ABUTH ([7]; 250 g/Ha) | Herbicidal activity ABUTH ([7]; 500 g/Ha) | Herbicidal activity AMARE ([8]; 30 g/Ha) | Herbicidal activity AMARE ([8]; 60 g/Ha) | Herbicidal activity AMARE ([8]; 125 g/Ha) | Herbicidal activity AMARE ([8]; 250 g/Ha) | Herbicidal activity AMARE ([8]; 500 g/Ha) | Herbicidal activity on a 0-100 scale, ECHCG ([11]; 250 g/Ha) | Herbicidal activity on a 0-100 scale, ECHCG ([11]; 500 g/Ha) | Herbicidal activity GLXMA ([12]; 250 g/Ha) | Herbicidal activity on a 0-100 scale, GLXMA ([12]; 250 g/Ha) | Herbicidal activity GLXMA ([12]; 500 g/Ha) | Herbicidal activity on a 0-100 scale, GLXMA ([12]; 500 g/Ha) | Herbicidal activity IPOHE ([14]; 15 g/Ha) | Herbicidal activity IPOHE ([14]; 30 g/Ha) | Herbicidal activity IPOHE ([14]; 60 g/Ha) | Herbicidal activity IPOHE ([14]; 125 g/Ha) | Herbicidal activity IPOHE ([14]; 250 g/Ha) | Herbicidal activity IPOHE ([14]; 500 g/Ha) | Herbicidal activity on a 0-100 scale, SETFA ([16]; 500 g/Ha)
0: Herbicidal activity ORYSA ([15]; 15 g/Ha) | Herbicidal activity on a 0-100 scale, ORYSA ([15]; 15 g/Ha) | Herbicidal activity ORYSA ([15]; 30 g/Ha) | Herbicidal activity on a 0-100 scale, ORYSA ([15]; 30 g/Ha) | Herbicidal activity ORYSA ([15]; 60 g/Ha) | Herbicidal activity on a 0-100 scale, ORYSA ([15]; 60 g/Ha) | Herbicidal activity ORYSA ([15]; 125 g/Ha) | Herbicidal activity on a 0-100 scale, ORYSA ([15]; 125 g/Ha)
